Experiment: Plasma levels after oral dose in mice
Format: in vivo, mouse
Details: male ICR mice, bolus oral dose 50 mg/kg in 1:1:8 DMA:Solutol:water; compared to DBK-1154
Description: Blood aliquots were collected via cardiac puncture (300 µL) sampling from anesthetized mice in tubes coated with lithium heparin, mixed gently, then kept on ice and centrifuged at 2500× g for 15 min at 4 °C, within 1 h of collection. The plasma was harvested and kept frozen at −70 °C until further processing.
The plasma samples were processed using protein precipitation and analyzed by LC-MS/MS. A plasma calibration curve was generated. Aliquots of drug-free plasma were spiked with the test articles at the specified concentration levels. The spiked plasma samples were processed together with the unknown plasma samples using the same procedure. The processed plasma samples were placed in the autosampler until the LC-MS/MS analysis, at which time peak areas were recorded, and the concentrations of the test articles in the unknown plasma samples were determined using the respective calibration curve. The reportable linear range of the assay was determined, along with the lower limit of quantitation (LLOQ).
Plots of plasma concentration of test articles, ATUX-792 and DBK-1154, vs. time are constructed and shown in Supplementary Figure S2.
levels compared to DBK -1154. Serum concentration after bolus oral dose of 50 mg/kg in
1:1:8 DMA:Solutol:water (3 animals per time point). Blood aliquots were collected via car- […]
quantitative bioanalysis. […]

With `O=S(=O)(N[C@H]1COC[C@@H](n2c3ccc(Cl)cc3c3cc(Cl)ccc32)[C@@H]1O)c1ccc(OC(F)(F)F)cc1` [ATUX-792] the “oral bioavailability / plasma levels” value was “good oral bioavailability”.

Reference: paper PMC9026148, “Pre-Clinical Study Evaluating Novel Protein Phosphatase 2A Activators as Therapeutics for Neuroblastoma” (Cancers, 2022)
